Test results reported in ChEMBL document CHEMBL1201862, “PubChem BioAssay data set” (2004).
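Tested at 5 concentrations; 48 h exposure; 96-well plates; endpoints linearly interpolated, else capped at highest concentration. Here, GI50 denotes the concentration required for 50% inhibition of growth.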 Activity calls are given as the source filed them. Cut-off read from the data, not from the text of the source: active = GI50 up to about 1.1 µM and inactive = higher.

Key:
Test in all cases: NCI-60 cell line screen, 48 h
CAKI-1 = system: CAKI-1
A549 = system: A549
SW-620 = system: SW-620
BT-549 = system: BT-549
NCI-H460 = system: NCI-H460
PC-3 = system: PC-3
U-251 = system: U-251
MOLT-4 = system: MOLT-4
HOP-92 = system: HOP-92
SN12C = system: SN12C
SK-MEL-2 = system: SK-MEL-2
LOX IMVI = system: LOX IMVI
K562 = system: K562
Malme-3M = system: Malme-3M
MDA-MB-435 = system: MDA-MB-435
SF-268 = system: SF-268
SNB-75 = system: SNB-75
HL-60 = system: HL-60
OVCAR-5 = system: OVCAR-5
UO-31 = system: UO-31

| Compound | GI50 (CAKI-1) | GI50 (A549) | GI50 (SW-620) | GI50 (BT-549) | GI50 (NCI-H460) | GI50 (PC-3) | GI50 (U-251) | GI50 (MOLT-4) | GI50 (HOP-92) | GI50 (SN12C) | GI50 (SK-MEL-2) | GI50 (LOX IMVI) | GI50 (K562) | GI50 (Malme-3M) | GI50 (MDA-MB-435) | GI50 (SF-268) | GI50 (SNB-75) | GI50 (HL-60) | GI50 (OVCAR-5) | GI50 (UO-31) |
| --- | --- | --- | --- | --- | --- | --- | --- | --- | --- | --- | --- | --- | --- | --- | --- | --- | --- | --- | --- | --- |
| Cn1c(=O)c2nc(SCCN3CCOCC3)[nH]c2n(C)c1=S | > 100 µM (inactive) | > 100 µM (inactive) | > 100 µM (inactive) | > 100 µM (inactive) | > 100 µM (inactive) | > 100 µM (inactive) | > 100 µM (inactive) | > 100 µM (inactive) | > 100 µM (inactive) | > 100 µM (inactive) | > 100 µM (inactive) | > 100 µM (inactive) | > 100 µM (inactive) | > 100 µM (inactive) | > 100 µM (inactive) | > 100 µM (inactive) | > 100 µM (inactive) | > 100 µM (inactive) | > 100 µM (inactive) | > 100 µM (inactive) |
| COc1cc2c(OC)c3cc(C)oc(=O)c3c(O)c2c(O)c1-c1c(OC)cc2c(OC)c3cc(C)oc(=O)c3c(O)c2c1O | 15.2 µM (inactive) | 19.4 µM (inactive) | 30 µM (inactive) | 24.5 µM (inactive) | 21.6 µM (inactive) | 14 µM (inactive) | 15.8 µM (inactive) | 15.7 µM (inactive) | 16.1 µM (inactive) | 20.7 µM (inactive) | 17.5 µM (inactive) | 19.6 µM (inactive) | 16.4 µM (inactive) | 17.7 µM (inactive) | 18.2 µM (inactive) | 21.5 µM (inactive) | 45.1 µM (inactive) | 15.2 µM (inactive) | 19.7 µM (inactive) | 18.5 µM (inactive) |
| C[C@]12[C@@H]3CC[C@H]1[C@@H](O)C(=O)N2CC3 | > 100 µM (inactive) | > 100 µM (inactive) | > 100 µM (inactive) | > 100 µM (inactive) | > 100 µM (inactive) | > 100 µM (inactive) | > 100 µM (inactive) | > 100 µM (inactive) | > 100 µM (inactive) | > 100 µM (inactive) | > 100 µM (inactive) | > 100 µM (inactive) | > 100 µM (inactive) | > 100 µM (inactive) | > 100 µM (inactive) | > 100 µM (inactive) | > 100 µM (inactive) | > 100 µM (inactive) | > 100 µM (inactive) | > 100 µM (inactive) |
| COc1cc2oc(-c3ccc4c(c3)OCO4)c(OC)c(=O)c2c(O)c1OC | > 50 µM (inactive) | > 50 µM (inactive) | > 50 µM (inactive) | 34.9 µM (inactive) | > 50 µM (inactive) | > 50 µM (inactive) | 18.9 µM (inactive) | > 50 µM (inactive) | 22.8 µM (inactive) | > 50 µM (inactive) | > 50 µM (inactive) | > 50 µM (inactive) | 27.9 µM (inactive) | > 50 µM (inactive) | 26.9 µM (inactive) | 29.4 µM (inactive) | 28.6 µM (inactive) | > 50 µM (inactive) | > 50 µM (inactive) | > 50 µM (inactive) |
| CC(C)SC1SCC2C(=O)N(C)C3(CC3C)C(=O)OCC(NC(=O)c3nc4ccccc4cc3O)C(=O)NC(C)C(=O)N(C)C1C(=O)N(C)C1(CC1C)C(=O)OCC(NC(=O)c1nc3ccccc3cc1O)C(=O)NC(C)C(=O)N2C (stereo not given) | < 0.0001 µM (active) | < 0.0001 µM (active) | < 0.0001 µM (active) | 0.01 µM (active) | < 0.0001 µM (active) | < 0.0001 µM (active) | < 0.0001 µM (active) | < 0.0001 µM (active) | < 0.0001 µM (active) | < 0.0001 µM (active) | < 0.0001 µM (active) | < 0.0001 µM (active) | < 0.0001 µM (active) | < 0.0001 µM (active) | < 0.0001 µM (active) | < 0.0001 µM (active) | < 0.0001 µM (active) | < 0.0001 µM (active) | < 0.0001 µM (active) | < 0.0001 µM (active) |
